One assay addresses T1, FLK-1 receptor (Mus musculus, UniProt P35918).
T1 construct: expressed in transfected cells; host or cells: NIH3T3 C7#3
The assay is described as follows: ELISA assay measuring the kinase activity of the FLK-1 receptor in cells engineered to express FLK-1. In kind it is cell-based. The following applies: NIH3T3 C7#3 FLK-1 expressing cells, VEGF stimulation, phosphotyrosine ELISA. How it is done:
An ELISA assay was conducted to measure the kinase activity of the FLK-1 receptor and more specifically, the inhibition or activation of TK activity on the FLK-1 receptor. Specifically, the following assay was conducted to measure kinase activity of the FLK-1 receptor in cells genetically engineered to express FLK-1.
(11) NIH3T3 C7#3 Cells (FLK-1 expressing cells);
The following protocol was used for conducting the assay:
1. Coat Corning 96-well elisa plates with 1.0 μg per well Cappel Anti-rabbit IgG antibody in 0.1 M Na2CO3 pH 9.6. Bring final volume to 150 μL per well. Coat plates overnight at 4° C. Plates can be kept up to two weeks when stored at 4° C.
2. Grow cells in Growth media (DMEM, supplemental with 2.0 mM L-Glutamine, 10% FBS) in suitable culture dishes until confluent at 37° C., 5% CO2.
3. Harvest cells by trypsinization and seed in Corning 25850 polystyrene 96-well roundbottom cell plates, 25.000 cells/well in 200 μL of growth media.
4. Grow cells at least one day at 37° C., 5% CO2.
5. Wash cells-with D-PBS 1×.
6. Add 200 μL/well of starvation media (DMEM, 2.0 mM 1-Glutamine, 0.1% FBS). Incubate overnight at 37° C., 5% CO2.
7. Dilute Compounds 1:20 in polypropylene 96 well plates using starvation media. Dilute dimethylsulfoxide 1:20 for use in control wells.
8. Remove starvation media from 96 well cell culture plates and add 162 μL of fresh starvation media to each well.
9. Add 18 μL of 1:20 diluted Compound dilution (from step 7) to each well plus the 1:20 dimethylsulfoxide dilution to the control wells (+/− VEGF), for a final dilution of 1:200 after cell stimulation. Final dimethylsulfoxide is 0.5%. Incubate the plate at 37° C., 5% CO2 for two hours.
10. Remove unbound antibody from ELISA plates by inverting plate to remove liquid. Wash 3 times with TBSW+0.5% ethanolamine, pH 7.0. Pat the plate on a paper towel to remove excess liquid and bubbles.
11. Block plates with TBSW+0.5% Ethanolamine, pH 7.0, 150 μL per well. Incubate plate thirty minutes while shaking on a microliter plate shaker.
12. Wash plate 3 times as described in step 10.
13. […] Bring final volume to 150 μL/well with TBSW+0.5% ethanolamine pH 7.0. Incubate plate for thirty minutes while shaking.
14. Add 180 μL starvation medium to the cells and stimulate cells with 20 μL/well 10.0 mM sodium ortho vanadate and 500 ng/mL VEGF (resulting in a final concentration of 1.0 mM sodium ortho vanadate and 50 ng/mL VEGF per well) for eight minutes at 37° C., 5% CO2. Negative control wells receive only starvation medium.
15. After eight minutes, media should be removed from the cells and washed one time with 200 μL/well PBS.
16. Lyse cells in 150 μL/well HNTG while shaking at room temperature for five minutes. HNTG formulation includes sodium ortho vanadate, sodium pyro phosphate and EDTA.
17. Wash ELISA plate three times as described in step 10.
18. Transfer cell lysates from the cell plate to ELISA plate and incubate while shaking for two hours. To transfer cell lysate pipette up and down while scrapping the wells.
19. Wash plate three times as described in step 10.
20. Incubate ELISA plate with 0.02 μg/well UB40 in TBSW+05% ethanolamine. Bring final volume to 150 μL/well. Incubate while shaking for 30 minutes.
21. Wash plate three times as described in step 10.
22. Incubate ELISA plate with 1:10,000 diluted EIA grade goat anti-mouse IgG conjugated horseradish peroxidase in TBSW+0.5% ethanolamine, pH 7.0. Bring final volume to 150 μL/well. Incubate while shaking for thirty minutes.
23. Wash plate as described in step 10.
24. Add 100 μL of ABTS/H2O2 solution to well. Incubate ten minutes while shaking.
25. Add 100 μL of 0.2 M HCl for 0.1 M HCl final to stop the color development reaction. Shake 1 minute at room temperature. Remove bubbles with slow stream of air and read the ELISA plate in an ELISA plate reader at 410 nm.
The IC50 values were measured for several of the compounds of the invention.
A general note: In an ELISA, binding on a coated surface is turned into a signal by an enzyme label.

For assay [1], the system named is 3T3 cell line genetically engineered to express human PDGF-R. Briefly: PDGF-induced BrdU incorporation assay. In kind it is cell-based. The following applies: 3T3 cells expressing human PDGF-R, read-out: PDGF-Induced BrdU Incorp. IC50. How it is done:
(1) PDGF: human PDGF B/B; 1276-956, Boehringer Mannheim, Germany
(8) 3T3 cell line genetically engineered to express human PDGF-R.
1. Cells were seeded at 8000 cells/well in DMEM, 10% CS, 2 mM Gln in a 96 well plate. Cells were incubated overnight at 37° C. in 5% CO2.
2. After 24 hours, the cells were washed with PBS, and then were serum starved in serum free medium (0% CS DMEM with 0.1% BSA) for 24 hours.
3. On day 3, ligand (PDGF=3.8 nM, prepared in DMEM with 0.1% BSA) and test compounds were added to the cells simultaneously. The negative control wells received serum free DMEM with 0.1% BSA only; the positive control cells received the ligand (PDGF) but no test compound. Test compounds were prepared in serum free DMEM with ligand in a 96 well plate, and serially diluted for 7 test concentrations.
4. After 20 hours of ligand activation, diluted BrdU labeling reagent (1:100 in DMEM, 0.1% BSA) was added and the cells were incubated with BrdU (final concentration=10 μM) for 1.5 hours.
5. After incubation with labeling reagent, the medium was removed by decanting and tapping the inverted plate on a paper towel. FixDenat solution was added (50 μL/well) and the plates were incubated at room temperature for 45 minutes on a plate shaker.
6. The FixDenat solution was thoroughly removed by decanting and tapping the inverted plate on a paper towel. Milk was added (5% dehydrated milk in PBS, 200 μL/well) as a blocking solution and the plate was incubated for 30 minutes at room temperature on a plate shaker.
7. The blocking solution was removed by decanting and the wells were washed once with PBS. Anti-BrdU-POD solution (1:100 dilution in PBS, 1% BSA) was added (100 μL/well), and the plate was incubated for 90 minutes at room temperature on a plate shaker.
8. The antibody conjugate was thoroughly removed by decanting and rinsing the wells 5 times with PBS, and the space was dried by inverting and tapping on a paper towel.
9. TMB substrate solution was added (100 μL/well) and incubated for 20 minutes at room temperature on a plate shaker until color development was sufficient for photometric detection.
10. The absorbance of the samples were measured at 410 nm (in “dual wavelength” mode with a filter reading at 490 nm, as a reference wavelength) on a Dynatech ELISA plate reader.
The IC50 values were measured for several of the compounds of the invention. These values are depicted in Table 10.
A general note: Dividing cells build labelled thymidine or BrdU into new DNA.

Read-outs that look alike come from different tables or passages of the source.

What is called IC50 is the point on the concentration scale where inhibition reaches its midpoint.

T1 sequence (P35918 20-1345): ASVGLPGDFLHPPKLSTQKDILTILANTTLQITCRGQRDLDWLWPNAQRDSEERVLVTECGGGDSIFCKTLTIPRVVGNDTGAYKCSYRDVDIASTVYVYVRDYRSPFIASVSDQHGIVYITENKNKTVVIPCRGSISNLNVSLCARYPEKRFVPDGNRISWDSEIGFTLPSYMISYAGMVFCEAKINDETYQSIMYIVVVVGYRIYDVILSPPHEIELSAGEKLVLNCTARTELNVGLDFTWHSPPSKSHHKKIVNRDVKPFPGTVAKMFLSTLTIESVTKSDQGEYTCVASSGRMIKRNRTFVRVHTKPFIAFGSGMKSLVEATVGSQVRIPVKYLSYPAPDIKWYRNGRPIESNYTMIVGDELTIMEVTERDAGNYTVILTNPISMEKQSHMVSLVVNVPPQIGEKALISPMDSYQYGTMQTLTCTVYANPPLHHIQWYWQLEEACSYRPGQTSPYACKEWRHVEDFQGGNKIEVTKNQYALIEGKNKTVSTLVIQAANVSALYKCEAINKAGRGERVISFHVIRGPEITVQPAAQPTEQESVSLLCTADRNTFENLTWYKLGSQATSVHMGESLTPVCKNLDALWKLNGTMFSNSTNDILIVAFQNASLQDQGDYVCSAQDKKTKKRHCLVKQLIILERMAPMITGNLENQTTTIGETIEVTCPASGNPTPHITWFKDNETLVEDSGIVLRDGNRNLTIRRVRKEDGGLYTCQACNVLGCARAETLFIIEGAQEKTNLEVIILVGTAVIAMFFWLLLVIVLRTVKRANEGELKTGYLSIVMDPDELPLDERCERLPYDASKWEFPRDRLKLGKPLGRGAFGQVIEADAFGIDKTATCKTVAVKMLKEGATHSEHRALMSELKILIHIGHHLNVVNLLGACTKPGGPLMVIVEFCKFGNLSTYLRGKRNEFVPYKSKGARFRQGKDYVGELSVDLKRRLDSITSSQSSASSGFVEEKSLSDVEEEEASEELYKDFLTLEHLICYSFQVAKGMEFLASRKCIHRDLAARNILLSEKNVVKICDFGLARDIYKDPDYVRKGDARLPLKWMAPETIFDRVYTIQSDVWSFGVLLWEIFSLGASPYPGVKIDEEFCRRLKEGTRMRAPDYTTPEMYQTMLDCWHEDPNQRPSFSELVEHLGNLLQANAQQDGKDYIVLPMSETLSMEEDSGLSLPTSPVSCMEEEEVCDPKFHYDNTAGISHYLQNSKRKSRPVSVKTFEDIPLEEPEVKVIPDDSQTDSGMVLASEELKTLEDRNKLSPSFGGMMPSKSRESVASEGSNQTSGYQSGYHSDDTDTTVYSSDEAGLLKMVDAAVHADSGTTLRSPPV

Turning to `Cc1cccc2c1C(=Cc1[nH]c3c(c1CCC(=O)O)CCCC3)C(=O)N2` [IN-004, 3-[2-(4-Methyl-2-oxo-1,2-dihydro-indol-3-ylidenemethyl)-4,5,6,7-tetrahydro-1H-indol-3-yl]-propionic acid], the IC50 was determined as 0.023 µM on FLK-1 receptor and 13.5 µM in assay [1] (NIH3T3, PDGF 3.8 nM).

Regarding `Cc1ccc2c(c1)C(=Cc1[nH]c3c(c1CCC(=O)O)CCCC3)C(=O)N2` [IN-005, 3-[2-(5-Methyl-2-oxo-1,2-dihydro-indol-3-ylidenemethyl)-4,5,6,7-tetrahydro-1H-indol-3-yl]-propionic acid], the IC50 came out at 0.063 µM on FLK-1 receptor and 14.2 µM in assay [1] (NIH3T3, PDGF 3.8 nM).

As to `CN(C)C(=O)CCc1c(C=C2C(=O)Nc3ccccc32)[nH]c2c1CCCC2` [IN-008, N,N-Dimethyl-3-[2-(2-oxo-1,2-dihydro-indol-3-ylidenemethyl)-4,5,6,7-tetrahydro-1H-indol-3-yl]-propionamide], the IC50 on FLK-1 receptor amounted to 0.5 µM; in assay [1] (NIH3T3, PDGF 3.8 nM) it was 4.9 µM.

Take `Cc1c[nH]c(C=C2C(=O)Nc3ccc(Cl)cc32)c1CCC(=O)O` [IN-027, 3-[2-(5-Chloro-2-oxo-1,2-dihydro-indol-3-ylidenemethyl)-4-methyl-1H-pyrrol-3-yl]-propionic acid]: inhibition at FLK-1 receptor was half-maximal at 2.9 µM (IC50).

As to `CNC(=O)CCc1c(C=C2C(=O)Nc3ccccc32)[nH]c2c1CCCC2` [IN-012, N-Methyl-3-[2-(2-oxo-1,2-dihydro-indol-3-ylidenemethyl)-4,5,6,7-tetrahydro-1H-indol-3-yl]-propionamide], the IC50 at FLK-1 receptor was below 0.78 µM; in assay [1] (NIH3T3, PDGF 3.8 nM), 3.9 µM.

Consider `O=C(CCc1c(C=C2C(=O)Nc3ccccc32)[nH]c2c1CCCC2)NCCN1CCOCC1` [IN-013, N-(2-Morpholin-4-yl-ethyl)-3-[2-(2-oxo-1,2-dihydro-indol-3-ylidenemethyl)-4,5,6,7-tetrahydro-1H-indol-3-yl]-propionamide], for which the IC50 against FLK-1 receptor was 0.63 µM; in assay [1] (NIH3T3, PDGF 3.8 nM), 5.2 µM.

As for `O=C(O)CCc1c(C=C2C(=O)Nc3ccccc32)[nH]c2c1CCCC2` [IN-001, 3-[2-(2-Oxo-1,2-dihydro-indol-3-ylidenemethyl)-4,5,6,7-tetrahydro-1H-indol-3-yl]-propionic acid], the IC50 stood at 0.062 µM against FLK-1 receptor and 2.9 µM in assay [1] (NIH3T3, PDGF 3.8 nM).

As to `COc1ccc2c(c1)NC(=O)C2=Cc1[nH]c2c(c1CCC(=O)O)CCCC2` [IN-007, 3-[2-(6-Methoxy-2-oxo-1,2-dihydro-indol-3-ylidenemethyl)-4,5,6,7-tetrahydro-1H-indol-3-yl]-propionic acid], the IC50 at FLK-1 receptor was 0.81 µM; in assay [1] (NIH3T3, PDGF 3.8 nM) it was 3 µM.

`COc1ccc2c(c1)NC(=O)C2=Cc1[nH]cc(C)c1CCC(=O)O` [IN-028, 3-[2-(6-Methoxy-2-oxo-1,2-dihydro-indol-3-ylidenemethyl)-4-methyl-1H-pyrrol-3-yl]-propionic acid]: the IC50 against FLK-1 receptor was determined as 1.5 µM; in assay [1] (NIH3T3, PDGF 3.8 nM) it was 8.7 µM.

As for `O=C(O)CCc1c(C=C2C(=O)Nc3ccc(Br)cc32)[nH]c2c1CCCC2` [IN-003, 3-[2-(5-Bromo-2-oxo-1,2-dihydro-indol-3-ylidenemethyl)-4,5,6,7-tetrahydro-1H-indol-3-yl]-propionic acid], the IC50 on FLK-1 receptor turned out to be 0.029 µM; in assay [1] (NIH3T3, PDGF 3.8 nM) it was 1.4 µM.

As for `O=C1Nc2ccccc2C1=Cc1[nH]c2c(c1CCC(=O)N1CCOCC1)CCCC2` [IN-011, 3-[3-(3-Morpholin-4-yl-3-oxo-propyl)-4,5 6,7-tetrahydro-1H-indol-2-ylmethylene]-1,3-dihydro-indol-2-one], the IC50 is below 0.78 µM on FLK-1 receptor and 8.6 µM in assay [1] (NIH3T3, PDGF 3.8 nM).

In the case of `NC(=O)CCc1c(C=C2C(=O)Nc3ccccc32)[nH]c2c1CCCC2` [IN-010, 3-[2-(2-Oxo-1,2-dihydro-indol-3-ylidenemethyl)-4,5,6,7-tetrahydro-1H-indol-3-yl]-propionamide], the IC50 was determined as 0.13 µM against FLK-1 receptor and 3.5 µM in assay [1] (NIH3T3, PDGF 3.8 nM).

Turning to `Cc1c[nH]c(C=C2C(=O)Nc3cccc(C)c32)c1CCC(=O)O` [IN-029, 3-[2-(4-Methyl-2-oxo-1,2-dihydro-indol-3-ylidenemethyl)-4-methyl-1H-pyrrol-3-yl]-propionic acid], the IC50 on FLK-1 receptor amounted to 0.2 µM; in assay [1] (NIH3T3, PDGF 3.8 nM) it was 24.8 µM.

With `CN(C)CCCc1c(C=C2C(=O)Nc3ccccc32)[nH]c2c1CCCC2` [IN-009, 3-[3-(3-Dimethylamino-propyl)-4,5,6,7-tetrahydro-1H-indol-2-ylmethylene]-1,3-dihydro-indol-2-one], the IC50 on FLK-1 receptor worked out at 7.4 µM; in assay [1] (NIH3T3, PDGF 3.8 nM) it was 4.2 µM.

`O=C(O)CCc1c(C=C2C(=O)Nc3ccc(Cl)cc32)[nH]c2c1CCCC2` [IN-002, 3-[2-(5-Chloro-2-oxo-1,2-dihydro-indol-3-ylidenemethyl)-4,5.6,7-tetrahydro-1H-indol-3-yl]-propionic acid]: the IC50 turned out to be 0.022 µM on FLK-1 receptor and 1.1 µM in assay [1] (PDGF […]).

Turning to `Cc1c[nH]c(C=C2C(=O)Nc3ccccc32)c1CCC(=O)O` [IN-026, 3-[4-Methyl-2-(2-oxo-1,2-dihydro-indol-3-ylidenemethyl)-1H-pyrrol-3-yl]-propionic acid], the IC50 against FLK-1 receptor stood at 0.2 µM; in assay [1] (NIH3T3, PDGF 3.8 nM) it was 20 µM.

For `Cc1c[nH]c(C=C2C(=O)Nc3ccc(Br)cc32)c1CCC(=O)O` [IN-031, 3-[2-(5-Bromo-2-oxo-1,2-dihydro-indol-3-ylidenemethyl)-4-methyl-1H-pyrrol-3-yl]-propionic acid], the IC50 worked out at 0.35 µM on FLK-1 receptor and 8.5 µM in assay [1] (NIH3T3, PDGF 3.8 nM).

Source of the values: patent US20040067531A1, “Methods of modulating protein tyrosine kinase function with substituted indolinone compounds” (SUGEN, INC., priority 1997, published 2004).
